Test results taken from patent publication US20150272184A1, “NARINGENIN AND SALTS THEREOF FOR SWEETNESS ENHANCEMENT” (International Flavors & Fragrances Inc., priority 2014, published 2015).
Where two headings read alike, the source gives them in different places.

How the values were obtained:
[1] = Flavor profile of Reb A water solution (10 ppm) plus naringenin of different concentrations; type: in vivo, human
Protocol: A Reb A water solution (10 ppm) was prepared and used as the base. Different amount of naringenin was added to the base to obtain naringenin samples of a series of concentrations ranging from 10 to 1000 ppm.

[2] = Paired comparison of sweetness, Reb A solutions in water with or without naringenin; type: in vivo, human
Text: The term “sweetness” or “sweetness intensity” is understood to mean the relative strength of sweet sensation as observed or experienced by an individual, e.g., a human, or a degree or amount of sweetness detected by a taster, for example on the scale from 0 (none) to 8 (very strong) used in sensory evaluations according to the procedure described in American Society for Testing Materials, Special Technical Publication-434: “Manual on Sensory Testing Methods,” ASTM International, West Conshohocken, Pa. (1996). Sucrose solutions of different concentrations were prepared in water. A naringenin (AuNutra Industries Inc) solution was also prepared in water (100 ppm) and used in all of the following examples. Each test group contained 26 paired samples. In each paired samples, a sucrose solution of a higher concentration was compared for sweetness against that of a lower concentration but in combination with naringenin. The results were represented by the numbers of samples rated as sweeter in paired comparisons, which were then statistically analyzed using binomial distribution for two-sided comparisons at 95% confidence level. The evaluation is reported in the following: Reb A solutions of different concentrations were prepared in water and the sweetness enhancement by naringenin was similarly evaluated.

[3] = cited from earlier work
[4] = Paired comparison of sweetness, sucrose solutions in water with or without naringenin; type: in vivo, human; settings: for Number of Samples Rated Sweeter: 26 paired samples
Text: The term “sweetness” or “sweetness intensity” is understood to mean the relative strength of sweet sensation as observed or experienced by an individual, e.g., a human, or a degree or amount of sweetness detected by a taster, for example on the scale from 0 (none) to 8 (very strong) used in sensory evaluations according to the procedure described in American Society for Testing Materials, Special Technical Publication-434: “Manual on Sensory Testing Methods,” ASTM International, West Conshohocken, Pa. (1996). Sucrose solutions of different concentrations were prepared in water. A naringenin (AuNutra Industries Inc) solution was also prepared in water (100 ppm) and used in all of the following examples. Each test group contained 26 paired samples. In each paired samples, a sucrose solution of a higher concentration was compared for sweetness against that of a lower concentration but in combination with naringenin. The results were represented by the numbers of samples rated as sweeter in paired comparisons, which were then statistically analyzed using binomial distribution for two-sided comparisons at 95% confidence level.

[5] = Sweetness enhancement of artificial sweetener acesulfame potassium by naringenin; type: in vivo, human; settings: acesulfame potassium (120 ppm), naringenin 100 ppm
Protocol: (§1) Sucrose solutions of different concentrations were prepared in water. A naringenin (AuNutra Industries Inc) solution was also prepared in water (100 ppm) and used in all of the following examples. In addition, the sweetness enhancement of (i) sucralose (40 ppm), (ii) aspartame (120 ppm) and (iii) acesulfame potassium (120 ppm) by naringenin was also evaluated, respectively.

[6] = Sweetness enhancement of artificial sweetener aspartame by naringenin; type: in vivo, human; settings: aspartame (120 ppm), naringenin 100 ppm
Protocol: as §1

[7] = cited from earlier work; remark: listed apart in the source
[8] = Paired comparison of sweetness, sucrose & Reb A combination with or without naringenin; type: in vivo, human
Text: The term “sweetness” or “sweetness intensity” is understood to mean the relative strength of sweet sensation as observed or experienced by an individual, e.g., a human, or a degree or amount of sweetness detected by a taster, for example on the scale from 0 (none) to 8 (very strong) used in sensory evaluations according to the procedure described in American Society for Testing Materials, Special Technical Publication-434: “Manual on Sensory Testing Methods,” ASTM International, West Conshohocken, Pa. (1996). Sucrose solutions of different concentrations were prepared in water. A naringenin (AuNutra Industries Inc) solution was also prepared in water (100 ppm) and used in all of the following examples. Each test group contained 26 paired samples. In each paired samples, a sucrose solution of a higher concentration was compared for sweetness against that of a lower concentration but in combination with naringenin. The results were represented by the numbers of samples rated as sweeter in paired comparisons, which were then statistically analyzed using binomial distribution for two-sided comparisons at 95% confidence level. The evaluation is reported in the following: The sweetness enhancement of sucrose & Reb A combination by naringenin was also evaluated.

[9] = Sweetness enhancement of artificial sweetener sucralose by naringenin; type: in vivo, human; settings: sucralose (40 ppm), naringenin 100 ppm
Protocol: as §1

[10] = Flavor profile of non-fat plain yogurt with 5% sucrose plus naringenin of different concentrations; type: in vivo, human
Protocol: A Danone Non-Fat Plain Yogurt with 5% sucrose was prepared and used as the base. Different amount of naringenin was added to the base to obtain naringenin samples of a series of concentrations ranging from 10 to 1000 ppm.

[11] = pair Sucrose (0.5%) vs Naringenin (100 ppm in water), p 0.40

SMILES: O=C1CC(c2ccc(O)cc2)Oc2cc(O)cc(O)c21 (centres unmarked) [Naringenin, 2,3-dihydro-5,7-dihydroxy-2-(4-hydroxyphenyl)-4H-1-benzopyran-4-one]
- concentration at which naringenin exhibited sweetness enhancement ([1]; Reb A water solution (10 ppm)): ≥ 50 ppm
- concentration at which undesirable off-notes developed ([1]; Reb A water solution (10 ppm)): 750 ppm
- Flavor Profile ([1]; Sample 2, naringenin 10 ppm in Reb A water solution (10 ppm)): Same as that of the base
- Flavor Profile ([1]; Sample 3, naringenin 50 ppm in Reb A water solution (10 ppm)): Very minor increase in sweetness
- Flavor Profile ([1]; Sample 4, naringenin 75 ppm in Reb A water solution (10 ppm)): Slightly more increase in sweetness
- Flavor Profile ([1]; Sample 5, naringenin 100 ppm in Reb A water solution (10 ppm)): Clear increase in sweetness with an impact up
- Flavor Profile ([1]; Sample 6, naringenin 250 ppm in Reb A water solution (10 ppm)): Intense sweetness with a stronger impact up
- Flavor Profile ([1]; Sample 7, naringenin 500 ppm in Reb A water solution (10 ppm)): Intense sweetness with a strong impact up front
- Flavor Profile ([1]; Sample 8, naringenin 750 ppm in Reb A water solution (10 ppm)): More intense sweetness with increased waxy
- enhancement of Reb A sweetness ([2]; naringenin 100 ppm): significantly enhanced
- enhancement compared with that provided by additional Reb A ([2]; naringenin 100 ppm with 100 ppm Reb A, ppm of Reb A): < 40 ppm
- solubility ([3]; in aqueous solutions): sparingly soluble
- solubility ([3]; in ethanol, ether, oils (e.g., olive oil or citrus oil) and supercritical carbon dioxide): soluble
- sweetness enhanced to a level of a sucrose solution ([4]; naringenin 100 ppm in combination with a 4% sucrose solution): 4.8%
- intrinsic sweetness, approximate level of a sucrose solution ([4]; naringenin 100 ppm in water alone): ~0.5%
- enhancement of sucrose sweetness ([4]; naringenin 100 ppm with 4% sucrose solution): more than an additive effect
- Number of Samples Rated Sweeter [4, 11]: 16
- sweetness enhancement [5]: enhanced sweetness with an impact up front
- sweetness enhancement [6]: enhanced sweetness with an impact up front
- aftertaste modifier effect ([7]; U.S. Publication No. 2009/0004360): decreases the perception of bitterness or undesirable flavor
- taste of naringenin itself ([7]; in vivo): weak to no sweet taste
- taste and flavor performance ([7]; tested up to a concentration of 10 ppm, U.S. Publication No. 2014/0170082): exhibits bitterness and unpleasant aftertaste, and performs poorly on flavor
- enhancement of the sweetness of sucrose & Reb A combination ([8]; naringenin 100 ppm): significantly enhanced
- enhancement compared with that achieved by Reb A ([8]; naringenin 100 ppm with Reb A (10 ppm) + Sucrose (4%), ppm of Reb A): > 20 ppm
- sweetness enhancement [9]: enhanced sweetness with an impact up front
- Flavor Profile ([10]; Sample 2, naringenin 10 ppm in yogurt with 5% sucrose): Same as the base
- Flavor Profile ([10]; Sample 3, naringenin 50 ppm in yogurt with 5% sucrose): Minor increase in sweetness
- Flavor Profile ([10]; Sample 4, naringenin 75 ppm in yogurt with 5% sucrose): Slightly more increase in sweetness
- Flavor Profile ([10]; Sample 5, naringenin 100 ppm in yogurt with 5% sucrose): Clear increase in sweetness
- Flavor Profile ([10]; Sample 6, naringenin 250 ppm in yogurt with 5% sucrose): More intense and full-body sweetness
- Flavor Profile ([10]; Sample 7, naringenin 500 ppm in yogurt with 5% sucrose): Full-body sweetness with good impact
- concentration at which naringenin exhibited sweetness enhancement ([10]; yogurt with 5% sucrose): ≥ 50 ppm
- concentration at which undesirable off-notes developed ([10]; yogurt with 5% sucrose): 1000 ppm

SMILES: C=C1C[C@@]23CC[C@H]4[C@@](C)(CCC[C@@]4(C)C(=O)O[C@@H]4O[C@H](CO)[C@@H](O)[C@H](O)[C@H]4O)[C@@H]2CC[C@]1(O[C@@H]1O[C@H](CO)[C@@H](O)[C@H](O[C@@H]2O[C@H](CO)[C@@H](O)[C@H](O)[C@H]2O)[C@H]1O[C@@H]1O[C@H](CO)[C@@H](O)[C@H](O)[C@H]1O)C3 [Reb A, rebaudioside A, reference compound]
- Number of Samples Rated Sweeter ([2]; pair 140 ppm Reb A vs 100 ppm Reb A + Naringenin (100 ppm), p 0.05, significant): 19
- Number of Samples Rated Sweeter ([2]; pair Reb A (120 ppm) vs Reb A (120 ppm) + Naringenin (100 ppm), p 0.01, significant): 5

SMILES: OC[C@H]1O[C@@](CO)(O[C@H]2O[C@H](CO)[C@@H](O)[C@H](O)[C@H]2O)[C@@H](O)[C@@H]1O [Sucrose, sucrose, reference compound]
- Number of Samples Rated Sweeter [4, 11]: 10
- Number of Samples Rated Sweeter ([4]; pair Sucrose (4.4%) vs Sucrose (4%) + Naringenin (100 ppm), p 0.01, significant): 6
- Number of Samples Rated Sweeter ([4]; pair Sucrose (4.8%) vs Sucrose (4%) + Naringenin (100 ppm), p >0.40): 14
